The compounds below were run on P. Falciparum NF54 (assay: Plasmodium falciparum in vitro assay ([3H]-hypoxanthine incorporation)). Conditions: P. Falciparum NF54, erythrocytic stages in human red blood cells, 50% human serum.
Assay type: cell-based
Protocol: In Vitro Antimalarial Activity: Plasmodium falciparum In Vitro Assay: In vitro activity against erythrocytic stages of P. Falciparum in human red blood cells is determined using a [^3H]-hypoxanthine incorporation assay. One strain sensitive to all drugs (P. […] After 48 hours, [^3H]-hypoxanthine (0.5 μCi) is added to each well of a plate. The plates are incubated for a further 24 hours under the same conditions then harvested with a Betaplate cell harvester (Wallac) and washed with distilled water. The dried filters are inserted into a plastic foil with 10 mL of scintillation fluid and counted in a Betaplate liquid scintillation counter. IC50 values are calculated from sigmoidal inhibition curves using Microsoft Excel.

Row | Compound | IC50 [nM]
1 | CN1CCC(N2CCC(N(Cc3ccc(N(C)c4ccncc4)cc3)C(=O)/C=C/c3ccc(C(F)(F)F)cc3)C(F)C2)CC1 (racemic) [Example 78, (±)-(E)-N-(cis-3-fluoro-1′-methyl-[1,4′-bipiperidin]-4-yl)-N-(4-(methyl(pyridin-4-yl)amino)benzyl)-3-(4-(trifluoromethyl)phenyl)acrylamide] | 12
2 | CN1CCC(N2CCC(N(Cc3ccc(N(C)c4ccncc4)cc3)C(=O)/C=C/c3ccc(C(F)(F)F)cc3)C(F)C2)CC1 (racemic) [Example 79, (±)-(E)-N-(trans-3-fluoro-1′-methyl-[1,4′-bipiperidin]-4-yl)-N-(4-(methyl(pyridin-4-yl)amino)benzyl)-3-(4-(trifluoromethyl)phenyl)acrylamide] | 21
3 | CN1CCC(N2C[C@H]3CC(N(Cc4ccc(N(C)c5ccncc5)cc4)C(=O)/C=C/c4ccc(C(F)(F)F)cc4)C[C@H]3C2)CC1 (single isomer, unassigned) [Example 64] | 12
4 | CN(c1ccncc1)c1ccc(CN(C(=O)/C=C/c2ccc(C(F)(F)F)cc2)C2C[C@@H]3CN(C4CCCC4)C[C@@H]3C2)cc1 (single isomer, unassigned) [Example 66] | 14
5 | CC(C)CCN1C[C@H]2CC(N(Cc3ccc(N(C)c4ccncc4)cc3)C(=O)/C=C/c3ccc(C(F)(F)F)cc3)C[C@H]2C1 (single isomer, unassigned) [Example 68] | 17
6 | CN(c1ccncc1)c1ccc(CN(C(=O)/C=C/c2ccc(C(F)(F)F)cc2)[C@H]2CCCNC2)cc1 [Example 2, (E)-N-[4-(Methyl-pyridin-4-yl-amino)-benzyl]-N-(S)-piperidin-3-yl-3-(4-trifluoromethyl-phenyl)-acrylamide] | 82

Same assay, conditions: Plasmodium falciparum, Erythrocyte, P. Falciparum NF54, erythrocytic stages in human red blood cells, 50% human serum

Row | Compound | IC50 [nM]
7 | CC(c1ccccc1)N1CCC(N(Cc2ccc(N(C)c3ccncc3)cc2)C(=O)/C=C/c2ccc(C(F)(F)F)cc2)CC1 (racemic) [Example 30, (±)-(E)-N-[4-(Methyl-pyridin-4-yl-amino)-benzyl]-N-[1-(1-phenyl-ethyl)-piperidin-4-yl]-3-(4-trifluoromethyl-phenyl)-acrylamide] | 175
8 | CN1CCC(N2CCCC(N(Cc3ccc(N(C)c4ccncc4)cc3)C(=O)/C=C/c3ccc(C(F)(F)F)cc3)CC2)CC1 (racemic) [Example 57, (±)-(E)-N-(4-(methyl(pyridin-4-yl)amino)benzyl)-N-(1-(1-methylpiperidin-4-yl)azepan-4-yl)-3-(4-(trifluoromethyl)phenyl)acrylamide] | 18
9 | CN(c1ccncc1)c1ccc(CN(C(=O)/C=C/c2ccc(C(F)(F)F)cc2)C2CCCN(C3CCCC3)CC2)cc1 (racemic) [Example 60, (±)-(E)-N-(1-cyclopentylazepan-4-yl)-N-(4-(methyl(pyridin-4-yl)amino)benzyl)-3-(4-(trifluoromethyl)phenyl)acrylamide] | 79
10 | CC(C)CCN1CCCC(N(Cc2ccc(N(C)c3ccncc3)cc2)C(=O)/C=C/c2ccc(C(F)(F)F)cc2)CC1 (racemic) [Example 63, (±)-(E)-N-(1-isopentylazepan-4-yl)-N-(4-(methyl(pyridin-4-yl)amino)benzyl)-3-(4-(trifluoromethyl)phenyl)acrylamide] | 85
11 | CN1CCC(N2CCCCC(N(Cc3ccc(N(C)c4ccncc4)cc3)C(=O)/C=C/c3ccc(C(F)(F)F)cc3)C2)CC1 (racemic) [Example 70, (±)-(E)-N-(4-(methyl(pyridin-4-yl)amino)benzyl)-N-(1-(1-methylpiperidin-4-yl)azepan-3-yl)-3-(4-(trifluoromethyl)phenyl)acrylamide] | 20
12 | CN(c1ccncc1)c1ccc(CN(C(=O)/C=C/c2ccc(C(F)(F)F)cc2)C2CCCCN(C3CCCC3)C2)cc1 (racemic) [Example 71, (±)-(E)-N-(1-cyclopentylazepan-3-yl)-N-(4-(methyl(pyridin-4-yl)amino)benzyl)-3-(4-(trifluoromethyl)phenyl)acrylamide] | 167
13 | CC(C)CCN1CCCCC(N(Cc2ccc(N(C)c3ccncc3)cc2)C(=O)/C=C/c2ccc(C(F)(F)F)cc2)C1 (racemic) [Example 72, (±)-(E)-N-(1-isopentylazepan-3-yl)-N-(4-(methyl(pyridin-4-yl)amino)benzyl)-3-(4-(trifluoromethyl)phenyl)acrylamide] | 152
14 | CN(c1ccncc1)c1ccc(CN(C(=O)/C=C/c2ccc(C(F)(F)F)cc2)[C@H]2CCN(C3CCCC3)C[C@H]2F)cc1 (racemic) [Example 76, (±)-(E)-N-(cis-1-cyclopentyl-3-fluoropiperidin-4-yl)-N-(4-(methyl(pyridin-4-yl)amino)benzyl)-3-(4-(trifluoromethyl)phenyl)acrylamide] | 50
15 | CC(C)CCN1CC[C@H](N(Cc2ccc(N(C)c3ccncc3)cc2)C(=O)/C=C/c2ccc(C(F)(F)F)cc2)[C@H](F)C1 (racemic) [Example 77, (±)-(E)-N-(cis-3-fluoro-1-isopentylpiperidin-4-yl)-N-(4-(methyl(pyridin-4-yl)amino)benzyl)-3-(4-(trifluoromethyl)phenyl)acrylamide] | 53
16 | CN(c1ccncc1)c1ccc(CN(C(=O)/C=C/c2ccc(C(F)(F)F)cc2)[C@@H]2CCN(C3CCCC3)C[C@H]2F)cc1 (racemic) [Example 80, (±)-(E)-N-(trans-1-cyclopentyl-3-fluoropiperidin-4-yl)-N-(4-(methyl(pyridin-4-yl)amino)benzyl)-3-(4-(trifluoromethyl)phenyl)acrylamide] | 105
17 | CC(C)CCN1CC[C@@H](N(Cc2ccc(N(C)c3ccncc3)cc2)C(=O)/C=C/c2ccc(C(F)(F)F)cc2)[C@H](F)C1 (racemic) [Example 81, (±)-(E)-N-(trans-3-fluoro-1-isopentylpiperidin-4-yl)-N-(4-(methyl(pyridin-4-yl)amino)benzyl)-3-(4-(trifluoromethyl)phenyl)acrylamide] | 122
18 | COCC(C)N1CCC(N(Cc2ccc(Nc3ccnc(C)c3)cc2)C(=O)/C=C/c2ccc(C(F)(F)F)cc2)CC1 (racemic) [Example 84, (±)-(E)-N-[1-(2-Methoxy-1-methyl-ethyl)-piperidin-4-yl]-N-[4-(2-methyl-pyridin-4-ylamino)-benzyl]-3-(4-trifluoromethyl-phenyl)-acrylamide] | 42
19 | CN(c1ccncc1)c1ccc(CN(C(=O)/C=C/c2ccc(C(F)(F)F)cc2)C2CCN(C3CCCC3)C2)cc1 (racemic) [Example 99, (±)-(E)-N-(1-Cyclopentyl-pyrrolidin-3-yl)-N-[4-(methyl-pyridin-4-yl-amino)-benzyl]-3-(4-trifluoromethyl-phenyl)-acrylamide] | 43
20 | Cc1cc(Nc2ccc(CN(C(=O)/C=C/c3ccc(C(F)(F)F)cc3)C3CCN(C4CCCC4)C3)cc2)ccn1 (racemic) [Example 101, (±)-(E)-N-(1-Cyclopentyl-pyrrolidin-3-yl)-N-[4-(2-methyl-pyridin-4-ylamino)-benzyl]-3-(4-trifluoromethyl-phenyl)-acrylamide] | 43
21 | CN(c1ccncc1)c1ccc(CN(C(=O)/C=C/c2ccc(C(F)(F)F)cc2)C2CCNCC2)cc1 [Example 1, (E)-N-[4-(Methyl-pyridin-4-yl-amino)-benzyl]-N-piperidin-4-yl-3-(4-trifluoromethyl-phenyl)-acrylamide] | 121
22 | CN(c1ccncc1)c1ccc(CN(C(=O)/C=C/c2ccc(C(F)(F)F)cc2)C2CCN(Cc3ccc(C(F)(F)F)cc3)CC2)cc1 [Example 3, (E)-N-[4-(Methyl-pyridin-4-yl-amino)-benzyl]-N-[1-(4-trifluoromethyl-benzyl)-piperidin-4-yl]-3-(4-trifluoromethyl-phenyl)-acrylamide] | 72
23 | Cc1nc(CN2CCC(N(Cc3ccc(N(C)c4ccncc4)cc3)C(=O)/C=C/c3ccc(C(F)(F)F)cc3)CC2)co1 [Example 4, (E)-N-[1-(2-Methyl-oxazol-4-ylmethyl)-piperidin-4-yl]-N-[4-(methyl-pyridin-4-yl-amino)-benzyl]-3-(4-trifluoromethyl-phenyl)-acrylamide] | 133
24 | CN(c1ccncc1)c1ccc(CN(C(=O)/C=C/c2ccc(C(F)(F)F)cc2)C2CCN(C3CCCC3)CC2)cc1 [Example 5, (E)-N-(1-Cyclopentyl-piperidin-4-yl)-N-[4-(methyl-pyridin-4-yl-amino)-benzyl]-3-(4-trifluoromethyl-phenyl)-acrylamide] | 11
25 | CN(c1ccncc1)c1ccc(CN(C(=O)/C=C/c2ccc(C(F)(F)F)cc2)C2CCN(Cc3ccccc3)CC2)cc1 [Example 6, (E)-N-(1-Benzyl-piperidin-4-yl)-N-[4-(methyl-pyridin-4-yl-amino)-benzyl]-3-(4-trifluoromethyl-phenyl)-acrylamide] | 58
26 | CCN1CCC(N(Cc2ccc(N(C)c3ccncc3)cc2)C(=O)/C=C/c2ccc(C(F)(F)F)cc2)CC1 [Example 7, (E)-N-(1-Ethyl-piperidin-4-yl)-N-[4-(methyl-pyridin-4-yl-amino)-benzyl]-3-(4-trifluoromethyl-phenyl)-acrylamide] | 26
27 | CC(C)CCN1CCC(N(Cc2ccc(N(C)c3ccncc3)cc2)C(=O)/C=C/c2ccc(C(F)(F)F)cc2)CC1 [Example 8, (E)-N-[1-(3-Methyl-butyl)-piperidin-4-yl]-N-[4-(methyl-pyridin-4-yl-amino)-benzyl]-3-(4-trifluoromethyl-phenyl)-acrylamide] | 43
28 | CN(c1ccncc1)c1ccc(CN(C(=O)/C=C/c2ccc(C(F)(F)F)cc2)C2CCN(CC3CC3)CC2)cc1 [Example 9, (E)-N-(1-Cyclopropylmethyl-piperidin-4-yl)-N-[4-(methyl-pyridin-4-yl-amino)-benzyl]-3-(4-trifluoromethyl-phenyl)-acrylamide] | 27
